From US7230139B2, “Diterpenoid compounds, compositions thereof and their use as anti-cancer or anti-fungal agents” (priority 2004, dated 2007)

What was measured:
[1] = assay type: in vivo, CB17 SCID/SCID female mice
Protocol: C33A cells were transplanted subcutaneously into the flank of female CB17 SCID/SCID mice. Each mouse was inoculated with a suspension of 2×10^6 tumor cells per 100 μL on day zero. The following six treatment groups of ten mice each were used: (a) a negative control group treated with intravenous (i.v.) injection of vehicle, (b) a negative control group treated with intraperitoneal (i.p.) injection of vehicle, (c) a positive control group treated with i.p. injection of Cisplatin, (d) a group treated with i.v. injection of a Compound 50, (e) a group treated with i.p. injection of Compound 50, and (f) a group treated with subcutaneous (s.c.) injection of Compound 50.
Treatment started on day thirteen after C33A cells transplantation for Compound 50 treated groups and on day fourteen for Cisplatin treated group. Compound 50 was administered i.v., i.p., and s.c. once daily for five consecutive days at a dose of 10, 15 and 30 mg/kg, respectively. Compound 50 was prepared as a working solution of 1.5 mg/mL in a vehicle solution of 20% Cremaphor EL (Sigma, St. Louis, Mo., USA), 10% Ethanol and 5% Dextrose (Abbot Laboratories, QC, Canada). The negative control groups were treated with vehicle alone. The positive control group was treated once every 3 days for fifteen days at a dose of 3.5 mg/kg. Cisplatin was formulated in PBS on each day of the injection and was administered i.p.
The mice were weighed and the tumors measured on day 13 and every 2 to 3 days after treatment commenced. Observations continued for 36 days after initial tumor implantation. The changes in body weight and in the calculated tumor volume were plotted (FIGS. 4 and 5). Statistical analysis was performed using GraphPad Prism (GraphPad Software Inc., San Diego, Calif.). Two-way ANOVA was used to determine how the treatment affected tumor growth over time. Following the two-way ANOVA, post-tests were performed using the Benferroni method to determine the statistical difference between the mean tumor-size of the two groups being compared on every day that the tumors were measured. […]

[2] = Solubility by filtration and LC/MS; assay type: physicochemical; details: in water (printed for Compound 74)
Protocol: To determine whether a compound is soluble in a solution, the solution was filtered on […] polytetrafluoroethylene filters (Whatman Inc. Clifton, N.J., USA) and the compound concentration in the filtrate was measured by LC/MS and compared to the expected concentration. If the concentration of the compound in the filtrate was equal +/−15% to the expected concentration, the compound was judged to be soluble in the solution.
The detection of Compound 74 or Compound 50 by LC/MS was carried out using the HPLC system that consisted of a Waters Alliance quaternary gradient HPLC pump (Waters, Milford, Mass., USA) and a ZQ2000 single quadrupole mass spectrometer (Waters, Milford, Mass., USA). The column used was XTerra MS C18: 50×2.1 mm, […] column at 20° C. Samples were injected and separated under the following conditions: The mobile phase “A” consisted of 5 mM ammonium formate, 0.1% formic acid in water and mobile phase “B” consisted of 5 mM ammonium formate, 0.1% formic acid in methanol. A linear gradient was applied as follows: 0 to 1 min, 94% “A” and 6% “B”; 1 to 4 min, 6% to 100% “B”; 4 to 8 min 100% “B”; 8 to 9 min, 100% “B” to 6% “B”; 9 to 12 min, 94% “A” and 6% “B”. […] Compounds were detected at m/z equal to their respective molecular weight plus 1.

[3] = test system: Saccharomyces cerevisiae strain W303a; assay: Yeast growth inhibition (OD600); assay type: cell-based; details: dilution series, YEP with glucose, galactose or glycerol, 30° C.; dose-dependent
Protocol: Yeast cells were first cultured overnight in 10 mL of YEP glucose-containing medium at 30° C. The following day, 5 μL of the overnight culture (5–6×10^3 cells) was added to 100 μL of YEP media supplemented with 2% of one of the three carbon sources mentioned above in a 96-well microtitre plate. To these cultures a dilution series of Compound 50 was added. Compound 50 was prepared as a stock solution in 100% dimethyl sulfoxide (DMSO) at a concentration of 10 mM. Serial dilutions were prepared in distilled water. The final DMSO concentration in each well was 0.5%. Yeast cells were grown at 30° C. and cell growth was monitored by reading the OD600 (optical density at 600 nm) with a Tecan ULTRA plate reader (TECAN U.S. Inc., Research Triangle Park, N.C., USA). […] Accordingly, Compound 50, an illustrative Diterpenoid Compound, is useful for inhibiting the growth of a fungus or treating a fungal infection.

COc1ccc2c(c1)C1(C)C=CC(=O)C(C)(C)C1=C(O)C2=O (racemic) [Compound 50]
Change in body weight ([1]; Compound 50 i.v., i.p. or s.c. 10, 15, 30 mg/kg once daily for five days): non-significant change in body weight | Animals died during the observation period ([1]; i.v. group of ten mice, four died in the i.v. vehicle group): two animals | solubility [2]: < 100 µg/mL | Growth of Saccharomyces cerevisiae [3]: significantly inhibited growth
